Results taken from article PMC10571761, “Transgenic Mice Expressing Functional TCRs Specific to Cardiac Myhc-α 334–352 on Both CD4 and CD8 T Cells Are Resistant to the Development of Myocarditis on C57BL/6 Genetic Background” (Cells, 2023).
Peptide text beside a SMILES is read from it.

Columns and labels:
IA^b = biological target: T1, IA^b (Mus musculus, UniProt P14434+P14483); assay: IA^b binding assay (DELFIA competition); details: soluble thrombin-cleaved IA^b (0.35 µg); competitor 0.00001 µM to 100 µM; biotinylated OVA 323–339 (50 µM) reference; pH 7.0 phosphate; overnight RT; fluorescence 340/615 nm; three to five experiments, three replicates each; read-out: IC50 value, binding to IA^b molecules
T1 construct: IA^b constructs were designed to contain the extracellular domains of IA^b-α and IA^b-β; CLIP 88–102 ([…]) with thrombin site (cleaved yes); made in house; host or cells: Sf9 insect cells (baculovirus)
T1 sequence (P14434 24-218 limits assumed): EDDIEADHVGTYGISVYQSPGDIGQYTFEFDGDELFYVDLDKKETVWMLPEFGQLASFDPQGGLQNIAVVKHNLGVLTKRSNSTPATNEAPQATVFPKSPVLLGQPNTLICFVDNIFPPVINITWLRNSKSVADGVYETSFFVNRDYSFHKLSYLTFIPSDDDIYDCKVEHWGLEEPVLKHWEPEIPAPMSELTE
T1 sequence (P14483 28-226 limits assumed): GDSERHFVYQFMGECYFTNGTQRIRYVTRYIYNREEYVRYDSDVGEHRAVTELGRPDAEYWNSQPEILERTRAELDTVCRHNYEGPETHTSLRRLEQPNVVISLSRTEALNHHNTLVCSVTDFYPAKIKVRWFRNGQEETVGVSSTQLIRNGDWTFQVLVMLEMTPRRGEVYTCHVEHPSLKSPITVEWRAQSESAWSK
Description: To determine the binding affinity of Myhc-α 334–352 to IA^b, soluble IA^b molecules were expressed similarly to the IA^k molecule. Briefly, IA^b constructs were designed to contain the extracellular domains of IA^b-α and IA^b-β [43]. The IA^b-β construct consisted of the class II-associated invariant chain peptide (CLIP) 88–102 (VSQMRMATPLLMRPM) and thrombin site to release the CLIP [44]. After expressing the IA^b molecules in baculovirus using Sf9 cells and purifying on an anti-IA^b affinity column (clone, M5/114) (BioXCell, West Lebanon, NH, USA), they were cleaved with thrombin to obtain empty IA^b molecules. […] In addition, anti-IA^b (10 µg/mL) was coated onto white fluorescence 96-well plates (Nunc, Rochester, NY, USA) in 0.2 M sodium phosphate buffer, pH 6.8, overnight, followed by washing and blocking with 2% casein for 2 h at 37 °C. […] Europium-labeled streptavidin was added (1 µg/mL) in dissociation-enhanced lanthanide fluorescence immunoassay (DELFIA®) buffer and then the DELFIA®-enhancement solution (Perkin Elmer, Waltham, MA, USA). Fluorescence intensities were measured at wavelengths of 340/615 nm using a VICTOR® Multilabel Plate Reader (Perkin Elmer), and IC50 values were then determined. […]

IA^k = biological target: T2, IA^k (Mus musculus, UniProt P01910+P06343); assay: IA^k binding assay (DELFIA competition); details: soluble thrombin-cleaved IA^k; reference peptide biotinylated HEL 46–61; overnight RT; europium-labeled streptavidin, fluorescence 340/615 nm; mean ± SEM from three to five experiments, three replicates each; read-out: IC50 value, binding to IA^k molecules
T2 construct: After expressing soluble IA^k and IA^b monomers in a baculovirus system; CLIP peptide, released by thrombin cleavage (cleaved yes); made in house; host or cells: baculovirus system (insect cells; Sf9 is stated only for IA^b)

A/J mice = details: immunization with CFA; cited from earlier work
Description: Histologically, the disease process can be classified into lymphocytic, neutrophilic, eosinophilic, granulomatous, and giant cell myocarditis. Of these, lymphocytic myocarditis generally occurs with viral infections. Although most myocarditis-affected individuals may spontaneously recover, up to 20% of them can develop DCM, in which autoimmunity is suspected as an underlying mechanism. […] The immunogenic epitopes can be promiscuous in that they can bind multiple MHC alleles.

lymphocytes from Tg mice = assay: Cytokine analysis, lymphocytes of immunized Tg mice; format: cell-based, TCR transgenic mice on C57BL/6 background; details: control peptide, two days
Description: Myhc-α 334–352 immunizations involved peptide/CFA emulsions containing Mycobacterium tuberculosis H37RA extract (Difco Laboratories, Detroit, MI, USA) with a final concentration of 5 mg/mL. The emulsions were administered subcutaneously (100 µg/mouse) in the inguinal and sternum regions on days 0 and 7. In some experiments, animals received emulsions in the left and right shoulders and on the right and left sides of the hip regions in split doses. Additionally, pertussis toxin (List Biological Laboratories, Campbell, CA, USA) was administered to animals intraperitoneally (100 ng/mouse) on days 0 and 2 after the first immunization.
Lymphocytes were obtained from wild-type (Wt) or Tg mice immunized with or without Myhc-α 334–352. […] Cytokines were analyzed using the LEGENDplex Murine Th cytokine Panel (12-plex or 13-plex; BioLegend). […] Beads were acquired by flow cytometry (FACSCalibur™), and concentrations of cytokines were determined using the LEGENDplex™ data analysis software suite (BioLegend). […]
Figure 6 Tg T cells produce mainly Th1 and Th17 cytokines. […] Cells were stimulated with or without Myhc-α 334–352 or OVA 323–339 (control) at the indicated concentrations for two days, and the culture supernatants were evaluated by cytokine bead array analysis except for IL-4, which was measured by ELISA. […]

CD4 and CD8 T cells = details: cited from earlier work
Description: In that direction, we sought to create TCR Tg mice specific to Myhc-α 334–352 and made a few observations. […] However, expression of Myhc-α 334–352-specific TCRs in both CD4 and CD8 T cells was not expected. To our knowledge, our Tg model is only the second such example to have been reported, with the earlier example being 1C6 Tg mice specific to myelin olig ...

BALB/c mice = details: immunization with CFA; cited from earlier work
Description: (§1) Histologically, the disease process can be classified into lymphocytic, neutrophilic, eosinophilic, granulomatous, and giant cell myocarditis. Of these, lymphocytic myocarditis generally occurs with viral infections. Although most myocarditis-affected individuals may spontaneously recover, up to 20% of them can develop DCM, in which autoimmunity is suspected as an underlying mechanism. Although autoantibodies for various antigens—such as cardiac myosin (Myhc), adenine nucleotide translocator (ANT), branched-chain α-ketoacid dehydrogenase kinase (BCKDk), sarcoplasmic/end ...

rats = details: immunization with CFA; cited from earlier work
Description: as §1

[1] = biological target: T3, cardiac myosin heavy chain (Myhc)-α peptide on I-Ak (mouse); assay: multimer staining
T3 peptide: DSAFDVLSFTAEEKAGVYK

Molecule: CC(C)C[C@H](NC(=O)[C@@H](NC(=O)[C@H](CC(=O)O)NC(=O)[C@H](Cc1ccccc1)NC(=O)[C@H](C)NC(=O)[C@H](CO)NC(=O)[C@@H](N)CC(=O)O)C(C)C)C(=O)N[C@@H](CO)C(=O)N[C@@H](Cc1ccccc1)C(=O)N[C@H](C(=O)N[C@@H](C)C(=O)N[C@@H](CCC(=O)O)C(=O)N[C@@H](CCC(=O)O)C(=O)N[C@@H](CCCCN)C(=O)N[C@@H](C)C(=O)NCC(=O)N[C@H](C(=O)N[C@@H](Cc1ccc(O)cc1)C(=O)N[C@@H](CCCCN)C(=O)O)C(C)C)[C@@H](C)O [Myhc-α 334–352] (H-DSAFDVLSFTAEEKAGVYK-OH)
- IC50 (IA^b): > 100 µM
- IC50 (IA^k): 37.8 ± 10.3 µM

Molecule: ANT 21–40: adenine nucleotide translocator 21–40 epitope (VSKTAVAPIERVKLLLQVQH; UniProt P48962 21-40, looked up, fragment)
- myocarditis induction in A/J mice (in words) (A/J mice): myocarditogenic

Molecule: ISQAVHAAHAEINEAGR [OVA 323–339]
- cytokine responses (in words) (lymphocytes from Tg mice): lack of cytokine responses

Molecule: MOG 35–55: myelin oligodendrocyte glycoprotein 35–55 (GPGYPIRALVGDEAELPCRIS; UniProt Q61885 35-55, looked up, fragment)
- T cell stimulation (in words) (CD4 and CD8 T cells): stimulate both cell types

Molecule: Myhc-α 338–348: truncated version of Myhc-α 334–352 (DVLSFTAEEKA; UniProt Q02566 338-348, looked up, fragment)
- T cell stimulation by truncated peptide (in words) (CD4 and CD8 T cells; A/J): could stimulate both CD4 and CD8 T cells

Molecule: Myhc-α 614–643: myocarditogenic epitope in BALB/c mice (SLKLMATLFSTYASADTGDSGKGKGGKKKG; UniProt Q02566 614-643, looked up, fragment)
- myocarditis induction in BALB/c mice (in words) (BALB/c mice): myocarditogenic

Molecule: Myhc-α 1304–1320: myocarditogenic epitope in rats (RGKLSYTQQMEDLKRQL; UniProt P02563 1304-1320, looked up, fragment)
- myocarditis induction in rats (in words) (rats): myocarditogenic

Molecule: SERCA2a 971–990: sarcoplasmic/endoplasmic reticulum Ca2^+ adenosine triphosphatase 2a 971–990 epitope (KISLPVILMDETLKFVARNY; UniProt O55143 971-990, looked up, fragment)
- myocarditis induction in A/J mice (in words) (A/J mice): myocarditogenic

Molecule: cTNI 105–122: cardiac troponin I 105–122 epitope (VDKVDEERYDVEAKVTKN; UniProt P48787 105-122, looked up, fragment)
- myocarditis induction in A/J mice (in words) (A/J mice): myocarditogenic

Molecule: β1AR 181–200: β1 adrenergic receptor 181–200 epitope (TVWAISALVSFLPILMHWWR; UniProt P34971 181-200, looked up, fragment)
- myocarditis induction in A/J mice (in words) (A/J mice): myocarditogenic

B1: Myhc-α 334–352-specific TCR of T cell hybridoma clone C33 (transgenic TCR of the Myhc-α 334–352 TCR Tg mice) (TCR)
alpha TRAV14-1*02 TRAJ42*01 CDR3: CAASAEGSNAKLTF
beta TRBV2*01 TRBJ2-5*01 CDR3: CASSQSLGQDTQYF
- binding result [1]: recognises
